Experimental data from patent publication US4920103A, “Modifications of mycinose and 3-O-demethylmycinose in tylosin-type macrolides” (Eli Lilly and Company, priority 1986, dated 1990).
Values after ≈ are worked out from the molar mass of the structure shown. Read-outs that look alike come from different tables or passages of the source.

Key:
Format in all cases: cell-based
[1] = test system: Staphylococcus aureus X1.1; experiment: MIC, standard agar-dilution assay, S. aureus X1.1
Experimental: (§1) The MIC's in Table II were determined by standard agar-dilution assays. The MIC's in Table III were obtained using conventional broth-dilution microtiter tests.

[2] = test system: Staphylococcus aureus V41; experiment: MIC, standard agar-dilution assay, S. aureus V41; conditions: Staphylococcus aureus, V41
Experimental: as §1

[3] = test system: Staphylococcus aureus X400; experiment: MIC, standard agar-dilution assay, S. aureus X400
Experimental: as §1

[4] = test system: Staphylococcus aureus S13E; experiment: MIC, standard agar-dilution assay, S. aureus S13E
Experimental: as §1

[5] = test system: Staphylococcus epidermidis EPI1; experiment: MIC, standard agar-dilution assay, S. epidermidis EPI1
Experimental: as §1

[6] = test system: Staphylococcus epidermidis 222; experiment: MIC, standard agar-dilution assay, S. epidermidis 222
Experimental: as §1

[7] = test system: Streptococcus pyogenes C203; experiment: MIC, standard agar-dilution assay, S. pyogenes C203; conditions: Streptococcus pyogenes, C203
Experimental: as §1

[8] = test system: Streptococcus Group D X66; experiment: MIC, standard agar-dilution assay, Streptococcus Group D X66
Experimental: as §1

[9] = test system: Streptococcus Group D 2041; experiment: MIC, standard agar-dilution assay, Streptococcus Group D 2041; conditions: GROUPD2041
Experimental: as §1

[10] = test system: Haemophilus influenzae C.L.; experiment: MIC, standard agar-dilution assay, H. influenzae C.L.
Experimental: as §1

[11] = test system: Haemophilus influenzae 76; experiment: MIC, standard agar-dilution assay, H. influenzae 76
Experimental: as §1

[12] = test system: Escherichia coli EC14; experiment: MIC, standard agar-dilution assay, E. coli EC14
Experimental: as §1

[13] = test system: Klebsiella pneumoniae X68; experiment: MIC, standard agar-dilution assay, K. pneumoniae X68
Experimental: as §1

[14] = test system: Pseudomonas aeruginosa X239; experiment: MIC, standard agar-dilution assay, P. aeruginosa X239
Experimental: as §1

[15] = test system: Streptococcus pneumoniae Park I; experiment: MIC, standard agar-dilution assay, S. pneumoniae Park I; conditions: Streptococcus pneumoniae
Experimental: as §1

[16] = agar-dilution, methicillin-resistant strain, read-out: MIC
[17] = agar-dilution, ampicillin-sensitive strain, read-out: MIC
[18] = agar-dilution, ampicillin-resistant strain, read-out: MIC

Structure (SMILES)	MIC [4] [µg/mL]	MIC [6] [µg/mL]	MIC [7] [µg/mL]	MIC [9] [µg/mL]	MIC [10, 17] [µg/mL]	MIC [11, 18] [µg/mL]	MIC ([12]; agar-dilution, read-out: MIC) [µg/mL]	MIC ([13]; agar-dilution, read-out: MIC) [µg/mL]	MIC ([14]; agar-dilution, read-out: MIC) [µg/mL]	MIC [1] [µg/mL]	MIC [2] [µg/mL]	MIC [3] [µg/mL]	MIC [5] [µg/mL]	MIC [15] [µg/mL]	MIC [8] [µg/mL]	MIC [10] [µg/mL]	MIC [11] [µg/mL]	also measured
CCCNC1C(C)OC(OCC2C=C(C)C=CC(=O)C(C)CC(CCOc3ccccc3)C(OC3OC(C)C(O)C(N(C)C)C3O)C(C)C(O)CC(=O)OC2CC)C(OC)C1OC (centres unmarked) [Compound 38, 4"-Deoxy-20-DH-20-O-phenyl-4"-(n-propylamino)desmycosin]	8 (≈ 8.98 µM)	8 (≈ 8.98 µM)	4 (≈ 4.49 µM)	64 (≈ 71.8 µM)	> 128	> 128	> 128	> 128	> 128									MIC ([1]; agar-dilution, read-out: MIC): 16 µg/mL (≈ 18 µM); MIC ([2]; agar-dilution, penicillin-resistant strain, read-out: MIC): 16 µg/mL (≈ 18 µM); MIC [3, 16]: 16 µg/mL (≈ 18 µM); MIC ([5]; agar-dilution, read-out: MIC): 16 µg/mL (≈ 18 µM); MIC ([8]; agar-dilution, read-out: MIC): 16 µg/mL (≈ 18 µM)
CCC1OC(=O)CC(O)C(C)C(OC2OC(C)C(O)C(N(C)C)C2O)C(CCOc2ccccc2)CC(C)C(=O)C=CC(C)=CC1COC1OC(C)C(OCCOC)C(OC)C1OC (centres unmarked) [Compound 44, 20-DH-4"-(2-Methoxyethoxy)-20-O-phenyl-desmycosin]	2 (≈ 2.2 µM)	2 (≈ 2.2 µM)	4 (≈ 4.4 µM)	32 (≈ 35.2 µM)	> 128	> 128	> 128	> 128	> 128	2 (≈ 2.2 µM)	2 (≈ 2.2 µM)	2 (≈ 2.2 µM)	2 (≈ 2.2 µM)	4 (≈ 4.4 µM)	8 (≈ 8.81 µM)			
CCC1OC(=O)CC(O)C(C)C(OC2OC(C)C(O)C(N(C)C)C2O)C(CCOc2ccccc2)CC(C)C(=O)C=CC(C)=CC1COC1OC(C)C(NC)C(OC)C1OC (centres unmarked) [Compound 31, 4"-Deoxy-20-DH-4"-methylamino-20-O-phenyl-desmycosin]	0.25 (≈ 0.29 µM)	0.5 (≈ 0.579 µM)		2 (≈ 2.32 µM)			> 128	> 128	> 128	0.5 (≈ 0.579 µM)	0.5 (≈ 0.579 µM)	0.5 (≈ 0.579 µM)			2 (≈ 2.32 µM)	32 (≈ 37.1 µM)		MIC ([7]; agar-dilution, read-out: MIC): 0.125 µg/mL (≈ 0.145 µM); MIC ([15]; agar-dilution, read-out: MIC): 0.125 µg/mL (≈ 0.145 µM)
CCC1OC(=O)CC(O)C(C)C(OC2OC(C)C(O)C(N(C)C)C2O)C(CCOc2ccccc2)CC(C)C(=O)C=CC(C)=CC1COC1OC(C)C(N(C)C)C(OC)C1OC (centres unmarked) [Compound 33, 4"-Deoxy-20-DH-4"-dimethylamino-20-O-phenyl-desmycosin]	4 (≈ 4.56 µM)			64 (≈ 73 µM)			> 128	> 128	> 128	4 (≈ 4.56 µM)	4 (≈ 4.56 µM)				32 (≈ 36.5 µM)	64 (≈ 73 µM)	64 (≈ 73 µM)	MIC [3, 16]: 2 µg/mL (≈ 2.28 µM); MIC ([5]; agar-dilution, read-out: MIC): 2 µg/mL (≈ 2.28 µM); MIC ([6]; agar-dilution, read-out: MIC): 2 µg/mL (≈ 2.28 µM)
CCC1OC(=O)CC(O)C(C)C(OC2OC(C)C(OC(C)=O)C(N(C)C)C2OC(C)=O)C(CCOc2ccccc2)CC(C)C(=O)C=CC(C)=CC1COC1OC(C)C([n+]2ccccc2)C(OC)C1OC (centres unmarked) [Compound 22, 2',4'-Di-O-acetyl-4"-deoxy-20-DH-20-O-phenyl-4"-pyridinium-desmycosin]	4	4	4	16			> 128	> 128	> 128	2	4	4	2	2	16	64	32	
CCCN(CCC)C1C(C)OC(OCC2C=C(C)C=CC(=O)C(C)CC(CCOc3ccccc3)C(OC3OC(C)C(O)C(N(C)C)C3O)C(C)C(O)CC(=O)OC2CC)C(OC)C1OC (centres unmarked) [Compound 48, 4"-Deoxy-20-DH-20-O-phenyl-4"-[di-(n-propyl)amino]desmycosin]	16 (≈ 17.1 µM)	16 (≈ 17.1 µM)	8 (≈ 8.57 µM)	16 (≈ 17.1 µM)	> 128	> 128	> 128	> 128	> 128	16 (≈ 17.1 µM)	16 (≈ 17.1 µM)	16 (≈ 17.1 µM)	16 (≈ 17.1 µM)	4 (≈ 4.29 µM)	16 (≈ 17.1 µM)			
CCC1OC(=O)CC(O)C(C)C(OC2OC(C)C(O)C(N(C)C)C2O)C(CCOc2ccccc2)CC(C)C(=O)C=CC(C)=CC1COC1OC(C)C(N(C)CC#N)C(OC)C1OC (centres unmarked) [Compound 29, 4"-[(Cyanomethyl)methylamino]-4"-deoxy-20-DH-20-O-phenyl-desmycosin]	2 (≈ 2.22 µM)	2 (≈ 2.22 µM)		64 (≈ 70.9 µM)						2 (≈ 2.22 µM)	2 (≈ 2.22 µM)	2 (≈ 2.22 µM)	1 (≈ 1.11 µM)		32 (≈ 35.5 µM)	16 (≈ 17.7 µM)	32 (≈ 35.5 µM)	MIC [12]: > 128 µg/mL; MIC [13]: > 128 µg/mL; MIC [14]: > 128 µg/mL
